# Laboratory results: PubChem BioAssay (NCI)
#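 Test compounds were applied to cells in 96-well plates for 48 hours at 5 doses. The concentration for 50% growth inhibition is given as GI50. TGI denotes the concentration required for complete inhibition of growth.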
# Assays:
# Experiment in all cases: NCI anticancer screen, dose series, 48 h
# [1] = test system: SNB-75 CNS
# [2] = test system: NCI-H460 lung
# [3] = test system: HCT-15 colon
# [4] = test system: M14 melanoma
# [5] = test system: NCI-H226 lung
# [6] = test system: U251 CNS
# [7] = test system: HL-60(TB) leukemia
# [8] = test system: LOX IMVI melanoma
# [9] = test system: A549 NSCLC
# [10] = test system: HS 578T breast
# [11] = test system: SW-620 colon
# [12] = test system: A498 renal
# [13] = test system: PC-3 prostate
# [14] = test system: DU-145 prostate
# [15] = test system: OVCAR-4 ovarian
# [16] = test system: K-562 leukemia
# [17] = test system: IGROV1 ovarian
# [18] = test system: HOP-62 NSCLC
# [19] = test system: MALME-3M melanoma
# [20] = test system: SF-539 CNS
# [21] = test system: SNB-19 CNS
# [22] = test system: T-47D breast
# [23] = test system: SR leukemia
# [24] = test system: RPMI-8226 leukemia
# [25] = test system: 786-0 renal
# [26] = test system: MCF7 breast
# [27] = test system: CCRF-CEM leukemia
# [28] = test system: UACC-62 melanoma
# [29] = test system: ACHN renal
# [30] = test system: SF-295 CNS
# [31] = test system: EKVX NSCLC
# [32] = test system: SK-MEL-2 melanoma
# [33] = test system: SK-MEL-28 melanoma
# [34] = test system: SK-OV-3 ovarian
# [35] = test system: MOLT-4 leukemia
# [36] = test system: CAKI-1 renal
# [37] = test system: UO-31 renal
# [38] = test system: OVCAR-5 ovarian
# [39] = test system: SN12C renal
# [40] = test system: NCI-H522 lung
# [41] = test system: SK-MEL-5 melanoma
# [42] = test system: OVCAR-8 ovarian
# [43] = test system: HCC-2998 colon
# [44] = test system: UACC-257 melanoma
# [45] = test system: KM12 colon
# [46] = test system: OVCAR-3 ovarian
# [47] = test system: TK-10 renal
# [48] = test system: SF-268 CNS
# [49] = test system: NCI-H23 lung
# [50] = test system: HCT-116 colon
# [51] = test system: NCI/ADR-RES ovarian
# [52] = test system: BT-549 breast
# [53] = test system: HOP-92 NSCLC
# [54] = test system: HT29 colon
# [55] = test system: RXF 393 renal
# [56] = test system: MDA-MB-231 breast
smiles,measurement,setting,value
O=C(N/N=C/c1ccc(Br)s1)c1[nH]c2ccc(Br)cc2c1-c1ccccc1,GI50,[1],843 nM
same,TGI,[1],7950 nM
same,GI50,[2],762 nM
same,TGI,[2],8090 nM
same,GI50,[3],934 nM
same,TGI,[3],> 36200 nM
same,GI50,[4],1030 nM
same,TGI,[4],> 100000 nM
same,GI50,[5],826 nM
same,TGI,[5],> 37000 nM
same,GI50,[6],989 nM
same,TGI,[6],> 39900 nM
same,GI50,[7],< 48.4 nM
same,TGI,[7],387 nM
same,GI50,[8],312 nM
same,TGI,[8],1350 nM
same,GI50,[9],1010 nM
same,TGI,[9],> 44000 nM
same,GI50,[10],791 nM
same,TGI,[10],41900 nM
same,GI50,[11],418 nM
same,TGI,[11],> 100000 nM
same,GI50,[12],35200 nM
same,TGI,[12],> 84100 nM
same,GI50,[13],386 nM
same,TGI,[13],> 52300 nM
same,GI50,[14],700 nM
same,TGI,[14],> 59800 nM
same,GI50,[15],1210 nM
same,TGI,[15],> 53000 nM
same,GI50,[16],327 nM
same,TGI,[16],> 100000 nM
same,GI50,[17],983 nM
same,TGI,[17],> 39100 nM
same,GI50,[18],1290 nM
same,TGI,[18],> 66900 nM
same,GI50,[19],1310 nM
same,TGI,[19],> 68100 nM
same,GI50,[20],292 nM
same,TGI,[20],1150 nM
same,GI50,[21],1070 nM
same,TGI,[21],> 95700 nM
same,GI50,[22],7050 nM
same,TGI,[22],> 100000 nM
same,GI50,[23],270 nM
same,TGI,[23],> 50100 nM
same,GI50,[24],377 nM
same,TGI,[24],> 62500 nM
same,GI50,[25],1260 nM
same,TGI,[25],> 100000 nM
same,GI50,[26],852 nM
same,TGI,[26],> 34500 nM
same,GI50,[27],370 nM
same,TGI,[27],> 100000 nM
same,GI50,[28],1030 nM
same,TGI,[28],> 46100 nM
same,GI50,[29],903 nM
same,TGI,[29],> 45500 nM
same,GI50,[30],907 nM
same,TGI,[30],11000 nM
same,GI50,[31],4920 nM
same,TGI,[31],> 100000 nM
same,GI50,[32],710 nM
same,TGI,[32],> 50400 nM
same,GI50,[33],1720 nM
same,TGI,[33],> 88000 nM
same,GI50,[34],4070 nM
same,TGI,[34],> 100000 nM
same,GI50,[35],203 nM
same,TGI,[35],38900 nM
same,GI50,[36],1240 nM
same,TGI,[36],> 39000 nM
same,GI50,[37],1400 nM
same,TGI,[37],> 100000 nM
same,GI50,[38],863 nM
same,TGI,[38],> 86100 nM
same,GI50,[39],547 nM
same,TGI,[39],> 38200 nM
same,GI50,[40],89.8 nM
same,TGI,[40],344 nM
same,GI50,[41],675 nM
same,TGI,[41],1520 nM
same,GI50,[42],296 nM
same,TGI,[42],1820 nM
same,GI50,[43],1040 nM
same,TGI,[43],> 47400 nM
same,GI50,[44],1060 nM
same,TGI,[44],> 88300 nM
same,GI50,[45],1180 nM
same,TGI,[45],> 79600 nM
same,GI50,[46],638 nM
same,TGI,[46],38400 nM
same,GI50,[47],8830 nM
same,TGI,[47],> 82800 nM
same,GI50,[48],1610 nM
same,TGI,[48],> 100000 nM
same,GI50,[49],895 nM
same,TGI,[49],> 51700 nM
same,GI50,[50],282 nM
same,TGI,[50],> 100000 nM
same,GI50,[51],131 nM
same,TGI,[51],7110 nM
same,GI50,[52],738 nM
same,TGI,[52],2160 nM
same,GI50,[53],462 nM
same,TGI,[53],> 69100 nM
same,GI50,[54],311 nM
same,TGI,[54],> 35800 nM
same,GI50,[55],1270 nM
same,TGI,[55],37300 nM
same,GI50,[56],2310 nM
same,TGI,[56],> 100000 nM
